According to the NIST ThermoML archive (doi:10.1016/j.fluid.2014.11.020):
Numbers after ± are expanded uncertainties.

Test: activity coefficient (dimensionless); of the first substance listed, at infinite dilution; xn = mol fraction of the nth substance listed
Details: Liquid, Chromatography, x1 = 0

Cc1ccc(C)cc1 [1,4-dimethylbenzene] + CCCCCCCCn1cc[n+](COCCCOC[n+]2ccn(CCCCCCCC)c2C)c1C.N#C[N-]C#N.N#C[N-]C#N
activity coefficient (323.15 K): 1.34 ± 0.09 | activity coefficient (333.15 K): 1.35 ± 0.09 | activity coefficient (343.15 K): 1.36 ± 0.09

CC1CCCC1 [methylcyclopentane] + CCCCCCCCn1cc[n+](COCCCOC[n+]2ccn(CCCCCCCC)c2C)c1C.N#C[N-]C#N.N#C[N-]C#N
activity coefficient (323.15 K): 4.75 ± 0.32 | activity coefficient (333.15 K): 4.7 ± 0.32 | activity coefficient (343.15 K): 4.63 ± 0.32

CC(C)OC(C)C [diisopropyl ether] + CCCOC[n+]1ccn(C)c1.O=S(=O)([N-]S(=O)(=O)C(F)(F)F)C(F)(F)F
activity coefficient (323.15 K): 4.69 ± 0.32 | activity coefficient (333.15 K): 4.82 ± 0.33 | activity coefficient (343.15 K): 4.46 ± 0.3

ClC(Cl)Cl [trichloromethane] + CCCCCCCCn1cc[n+](COCCCOC[n+]2ccn(CCCCCCCC)c2C)c1C.O=S(=O)([N-]S(=O)(=O)C(F)(F)F)C(F)(F)F.O=S(=O)([N-]S(=O)(=O)C(F)(F)F)C(F)(F)F
activity coefficient (323.15 K): 0.39 ± 0.03 | activity coefficient (333.15 K): 0.38 ± 0.03 | activity coefficient (343.15 K): 0.39 ± 0.03

CCCCCCCC [octane] + CN(C)c1cc[n+](COCCCOC[n+]2ccc(N(C)C)cc2)cc1.O=S(=O)([N-]S(=O)(=O)C(F)(F)F)C(F)(F)F.O=S(=O)([N-]S(=O)(=O)C(F)(F)F)C(F)(F)F
activity coefficient (323.15 K): 37.9 ± 2.6 | activity coefficient (333.15 K): 34.5 ± 2.4 | activity coefficient (343.15 K): 30 ± 2

CC(C)O [propan-2-ol] + CCCOC[n+]1ccn(C)c1.F[B-](F)(F)F
activity coefficient (323.15 K): 2.91 ± 0.2 | activity coefficient (333.15 K): 2.7 ± 0.18 | activity coefficient (343.15 K): 2.6 ± 0.18

c1ccsc1 [thiophene] + CCCOC[n+]1ccn(C)c1.N#C[N-]C#N
activity coefficient (323.15 K): 1.41 ± 0.09 | activity coefficient (333.15 K): 1.45 ± 0.1 | activity coefficient (343.15 K): 1.5 ± 0.1

c1ccncc1 [pyridine] + CN(C)c1cc[n+](COCCCOC[n+]2ccc(N(C)C)cc2)cc1.O=S(=O)([N-]S(=O)(=O)C(F)(F)F)C(F)(F)F.O=S(=O)([N-]S(=O)(=O)C(F)(F)F)C(F)(F)F
activity coefficient (323.15 K): 0.29 ± 0.03 | activity coefficient (333.15 K): 0.31 ± 0.03 | activity coefficient (343.15 K): 0.32 ± 0.03

Cc1ccc(C)cc1 [1,4-dimethylbenzene] + N#C[N-]C#N.N#C[N-]C#N.c1ccc(Cn2cc[n+](COCCCOC[n+]3ccn(Cc4ccccc4)c3)c2)cc1
activity coefficient (323.15 K): 8.84 ± 0.6 | activity coefficient (333.15 K): 8.42 ± 0.57 | activity coefficient (343.15 K): 8.16 ± 0.56

CCCCCCCCC [nonane] + CCCCCCCCn1cc[n+](COCCC)c1C.O=S(=O)([N-]S(=O)(=O)C(F)(F)F)C(F)(F)F
activity coefficient (323.15 K): 7.93 ± 0.54 | activity coefficient (333.15 K): 7.42 ± 0.51 | activity coefficient (343.15 K): 6.93 ± 0.47

ClCCl [dichloromethane] + CCCOC[n+]1ccn(Cc2ccccc2)c1.O=S(=O)([N-]S(=O)(=O)C(F)(F)F)C(F)(F)F
activity coefficient (323.15 K): 0.52 ± 0.04 | activity coefficient (333.15 K): 0.44 ± 0.04 | activity coefficient (343.15 K): 0.37 ± 0.03

Cc1cccc(C)c1 [1,3-dimethylbenzene] + CCCCCCCCn1cc[n+](COCCCOC[n+]2ccn(CCCCCCCC)c2C)c1C.O=S(=O)([N-]S(=O)(=O)C(F)(F)F)C(F)(F)F.O=S(=O)([N-]S(=O)(=O)C(F)(F)F)C(F)(F)F
activity coefficient (323.15 K): 0.75 ± 0.05 | activity coefficient (333.15 K): 0.72 ± 0.05 | activity coefficient (343.15 K): 0.74 ± 0.05

CO [methanol] + CCCOC[n+]1ccc(N(C)C)cc1.O=S(=O)([N-]S(=O)(=O)C(F)(F)F)C(F)(F)F
activity coefficient (323.15 K): 1.28 ± 0.08 | activity coefficient (333.15 K): 1.23 ± 0.08 | activity coefficient (343.15 K): 1.16 ± 0.07

CCCCO [butan-1-ol] + CCCCCCCCn1cc[n+](COCCC)c1C.O=S(=O)([N-]S(=O)(=O)C(F)(F)F)C(F)(F)F
activity coefficient (323.15 K): 5.47 ± 0.37 | activity coefficient (333.15 K): 4.33 ± 0.3 | activity coefficient (343.15 K): 4.28 ± 0.29

CCCC(C)=O [pentan-2-one] + CCCOC[n+]1ccn(Cc2ccccc2)c1.F[B-](F)(F)F
activity coefficient (323.15 K): 1.79 ± 0.12 | activity coefficient (333.15 K): 1.76 ± 0.12 | activity coefficient (343.15 K): 1.82 ± 0.12

CCC(=O)CC [pentan-3-one] + CCCCCCCCn1cc[n+](COCCCOC[n+]2ccn(CCCCCCCC)c2C)c1C.O=S(=O)([N-]S(=O)(=O)C(F)(F)F)C(F)(F)F.O=S(=O)([N-]S(=O)(=O)C(F)(F)F)C(F)(F)F
activity coefficient (323.15 K): 0.28 ± 0.03 | activity coefficient (333.15 K): 0.28 ± 0.03 | activity coefficient (343.15 K): 0.29 ± 0.03
